For assay [1], the target named is T1, New Delhi metallo β lactamase-1 (NDM-1 bla) (Klebsiella pneumoniae, UniProt C7C422).
T1 construct: gene blaNDM-1
The assay is described as follows: biochemical. On the set-up: beta-lactamase inhibition, fluorogenic substrate CDC-1 hydrolysis, initial velocity, 10 min preincubation. The protocol: (§1) 36 and imaged with an Odyssey SA near-infrared two-color laser imaging system, followed by staining with Coomassie brilliant blue. Assay for IC50 of β-Lactamase Inhibitor The IC50 was determined following the reported protocol with minor modifications. […] The initial velocity (V0) was calculated using the linear portions of the curves. Each experiment was triplicated. The IC50 was obtained by fitting a dose-response curve using Graph Pad Prism 7 software.

The target in assay [2] is TEM-1 β-lactamase (TEM-1 bla) (Escherichia coli, UniProt P62593). The assay is described as follows: biochemical. The note with it: read-out: IC50 (μM) ebselen TEM-1. Also noted: beta-lactamase inhibition, fluorogenic substrate CDC-1 hydrolysis, initial velocity, 10 min preincubation. Here is the method: as §1
Assay [3] deals with T1, New Delhi metallo β lactamase-1 (NDM-1 bla). The assay is described as follows: in vitro β-lactamase inhibition assay (IC50, Figure S29; also cites ref […]). The class given is biochemical.

In article PMC11791975, “Highly Sensitive In Vivo Imaging of Bacterial Infections with a Hydrophilicity‐Switching, Self‐Immobilizing, Near‐Infrared Fluorogenic β‐Lactamase Probe Enriched within Bacteria” (Advanced Science, 2024) one finds IC50 data, which are given here for two compounds.

Where only a bound is given, the exact number is not on record here.

T1 sequence (C7C422 29-270 limits assumed): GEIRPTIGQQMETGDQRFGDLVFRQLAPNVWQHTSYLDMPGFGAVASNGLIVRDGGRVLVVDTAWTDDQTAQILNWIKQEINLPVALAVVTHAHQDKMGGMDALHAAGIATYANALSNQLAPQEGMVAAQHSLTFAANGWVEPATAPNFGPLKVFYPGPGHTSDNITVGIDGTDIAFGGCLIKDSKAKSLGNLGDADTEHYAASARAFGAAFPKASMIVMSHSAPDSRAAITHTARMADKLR
Chain of TEM-1 β-lactamase (TEM-1 bla) (P62593 24-286 limits assumed): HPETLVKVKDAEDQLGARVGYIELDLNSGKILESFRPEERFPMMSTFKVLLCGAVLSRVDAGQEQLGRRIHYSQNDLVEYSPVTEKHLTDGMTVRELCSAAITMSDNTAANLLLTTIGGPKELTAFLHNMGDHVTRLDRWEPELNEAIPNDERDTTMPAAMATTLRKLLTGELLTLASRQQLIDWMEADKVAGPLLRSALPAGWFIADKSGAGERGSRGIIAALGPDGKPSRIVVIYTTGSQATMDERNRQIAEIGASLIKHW

In assay [1], `NC(=O)[C@@H]1CC[C@@H]2CN1C(=O)N2OS(=O)(=O)O` [avibactam] showed a half-inhibitory concentration (IC50) of over 25 µM.

Take `O=c1c2ccccc2[se]n1-c1ccccc1` [ebselen]: the IC50 was over 25 µM in assay [2] and 0.508 µM in assay [3].
